The test system of data set [1] is caterpillars of the armyworm (Spodoptera frugiperda). The experiment in a line: Spodoptera frugiperda test (SPODFR spray treatment). The conditions noted are these: 168 h, read-out: activity in %. The data set is classed as in vivo. An outline of the steps: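 Percent caterpillar mortality read 7 days after infestation (0% none killed, 100% all killed). Treatment was a spray of the acetone/DMF/emulsifier formulation, water-diluted to test concentration, onto Zea mays leaf discs, allowed to dry before larvae were added.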

Data set [2] concerns larvae of the mustard beetle (Phaedon cochleariae). The experiment in a line: Phaedon test (PHAECO spray treatment). It is filed as in vivo. As to conditions: 168 h, read-out: activity in %. An outline of the steps:
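Mortality of mustard beetle larvae, expressed as percent killed (100% all, 0% none), assessed 7 days after spraying. Spray liquor made from compound in acetone plus dimethylformamide with alkylaryl polyglycol ether, diluted in emulsifier-containing water to the desired concentration.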

Data set [3] in a line: log P determination by HPLC on reversed-phase columns (EEC Directive 79/831 Annex V.A8). It is filed as physicochemical. The conditions noted are these: pH 2.7. The method, boiled down: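 Calibration used unbranched alkan-2-ones of 3 to 16 carbons with known log P, values interpolated linearly from retention times between neighbouring standards. Acidic-range LC-MS run at pH 2.7, eluents aqueous and acetonitrile formic acid 0.1%, linear gradient 10% to 95% acetonitrile.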

The mark [4] stands for this setting: HPLC on reversed-phase columns (C 18), EEC Directive 79/831 Annex V.A8, read-out: logP.

Where two headings read alike, the source gives them in different places.

With `CNC(=O)c1cc(C#N)cc(C)c1NC(=O)c1cc(Cn2nc3cc(OC(F)(F)F)cc(Br)c3n2)nn1-c1ncccc1Cl` [Example 100], the pest or weed control at 100 g/ha in data set [1] (100 g/ha, after 7 days) came to 100%; in data set [2] (100 g/ha, after 7 days) it was 100%. Also, the chromatographic logP in data set [3] was found to be 3.78.

`Cc1cc(I)cc(C(=O)NC(C)C2CC2)c1NC(=O)c1cc(Cn2ncc(C(F)(F)F)n2)nn1-c1ncccc1Cl` (stereo not drawn) [Example 158]: the pest or weed control at 100 g/ha in data set [1] (100 g/ha, after 7 days) came out at 100%; in data set [2] (100 g/ha, after 7 days) it was 100%. The molecule further had a chromatographic logP in data set [3] of 4.05.

On to `Cc1cc(I)cc(C(=O)NC(C)C2CC2)c1NC(=O)c1cc(Cn2cc(C(F)(F)C(F)(F)C(F)(F)F)nn2)nn1-c1ncccc1Cl` (stereo not drawn) [Example 336], for which the pest or weed control at 100 g/ha in data set [1] and in data set [2] was 100% in each case. Also, the chromatographic logP in data set [3] (setting [4]) came to 4.36.

For the molecule `Cc1cc(C#N)cc(C(=O)NC(C)(C)C)c1NC(=O)c1cc(Cn2ncc(-c3ccc(Cl)cc3Cl)n2)nn1-c1ncccc1Cl` [Example 63], the pest or weed control at 100 g/ha in data set [1] (100 g/ha, after 7 days) turned out to be 100%; in data set [2] (100 g/ha, after 7 days) it was 100%. In data set [3], this molecule had a chromatographic logP of 4.67.

For the molecule `CCNC(=O)c1cc(Cl)cc(C)c1NC(=O)c1cc(Cn2ncc(C(F)(F)F)n2)nn1-c1ncccc1Cl` [Example 138], the pest or weed control at 100 g/ha in data set [1] (100 g/ha, after 7 days) is 100%; in data set [2] (100 g/ha, after 7 days) it was 100%. This molecule also returned a chromatographic logP in data set [3] of 3.26.

Take `CNC(=O)c1cc(C#N)cc(C)c1NC(=O)c1cc(Cn2nc3ccc(Br)cc3n2)nn1-c1ncccc1Cl` [Example 95]: the pest or weed control at 100 g/ha was found to be 100% in data set [1] (100 g/ha, after 7 days) and 100% in data set [2] (100 g/ha, after 7 days). This molecule had a chromatographic logP in data set [3] of 3.01.

On to `Cc1cc(I)cc(C(N)=O)c1NC(=O)c1cc(Cn2ncc(C(F)(F)C(F)(F)F)n2)nn1-c1ncccc1Cl` [Example 354], for which the pest or weed control at 100 g/ha is 100% in data set [1] (100 g/ha, after 7 days) and 100% in data set [2] (100 g/ha, after 7 days). Also, the chromatographic logP in data set [3] came to 3.33.

As to `CNC(=O)c1cc(Cl)cc(C)c1NC(=O)c1cc(Cn2nc3ccc(C(F)(F)F)cc3n2)nn1-c1ncccc1Cl` [Example 74], the pest or weed control at 100 g/ha in data set [1] (100 g/ha, after 7 days) is 100%; in data set [2] (100 g/ha, after 7 days), 100%. The chromatographic logP in data set [3] was found to be 3.48.

On to `Cc1cc(Cl)cc(C(=O)NCC2CC2)c1NC(=O)c1cc(Cn2nc(C(F)(F)F)c(C(F)(F)F)n2)nn1-c1ncccc1Cl` [Example 406], for which the pest or weed control at 100 g/ha was determined as 100% in data set [1] (100 g/ha, after 7 days) and 100% in data set [2] (100 g/ha, after 7 days). The molecule further returned a chromatographic logP in data set [3] of 4.29.

In the case of `CNC(=O)c1cc(C#N)cc(C)c1NC(=O)c1cc(Cn2nc3cc(Cl)c(Cl)cc3n2)nn1-c1ncccc1Cl` [Example 81], the pest or weed control at 100 g/ha in data set [1] (100 g/ha, after 7 days) was found to be 100%; in data set [2] (100 g/ha, after 7 days) it was 100%. Moreover, the chromatographic logP in data set [3] was 3.35.

For the molecule `CCNC(=O)c1cc(I)cc(C)c1NC(=O)c1cc(Cn2ncc(C(F)(F)C(F)(F)C(F)(F)F)n2)nn1-c1ncccc1Cl` [Example 369], the pest or weed control at 100 g/ha in data set [1] and in data set [2] was 100% throughout. In data set [3] (setting [4]), the chromatographic logP was 4.28.

Take `CCNC(=O)c1cc(Cl)cc(C)c1NC(=O)c1cc(Cn2ncc(C(F)(F)C(F)(F)C(F)(F)F)n2)nn1-c1ncccc1Cl` [Example 367]: the pest or weed control at 100 g/ha in data set [1] and in data set [2] was 100% each time. In data set [3] (setting [4]), the chromatographic logP came out at 4.03.

`Cc1cc(I)cc(C(=O)NC(C)(C)C)c1NC(=O)c1cc(Cn2cc(C(F)(F)F)nn2)nn1-c1ncccc1Cl` [Example 211]: the pest or weed control at 100 g/ha in data set [1] (100 g/ha, after 7 days) is 100%; in data set [2] (100 g/ha, after 7 days), 100%. Moreover, the chromatographic logP in data set [3] is 3.72.

Consider `Cc1cc(I)cc(C(=O)NC2CC2)c1NC(=O)c1cc(Cn2cc(C(F)(F)C(F)(F)C(F)(F)F)nn2)nn1-c1ncccc1Cl` [Example 323], for which the pest or weed control at 100 g/ha in data set [1] and in data set [2] was 100% each time. Besides, in data set [3] (setting [4]), the chromatographic logP turned out to be 3.82.

On to `CNC(=O)c1cc(C#N)cc(C)c1NC(=O)c1cc(Cn2cc(-c3ccc(Cl)cc3Cl)nn2)nn1-c1ncccc1Cl` [Example 34], for which the pest or weed control at 100 g/ha was determined as 100% in data set [1] (100 g/ha, after 7 days) and 100% in data set [2] (100 g/ha, after 7 days). For the same molecule, the chromatographic logP in data set [3] turned out to be 3.2.

Regarding `Cc1cc(C#N)cc(C(N)=O)c1NC(=O)c1cc(Cn2cc(-c3ccc(C(F)(F)F)cc3)nn2)nn1-c1ncccc1Cl` [Example 2], the pest or weed control at 100 g/ha in data set [1] (100 g/ha, after 7 days) was determined as 100%; in data set [2] (100 g/ha, after 7 days), 100%. The chromatographic logP in data set [3] was found to be 2.81.

Take `Cc1cc(I)cc(C(=O)NC(C)C)c1NC(=O)c1cc(Cn2ncc(C(F)(C(F)(F)F)C(F)(F)F)n2)nn1-c1ncccc1Cl` [Example 267]: the pest or weed control at 100 g/ha worked out at 100% in data set [1] (100 g/ha, after 7 days) and 100% in data set [2] (100 g/ha, after 7 days). In data set [3], this molecule yielded a chromatographic logP of 4.51.

For the origin of these results see US8536202B2, “Triazole-substituted anthranilamides as pesticides” (Bayer Cropscience AG, priority 2010, dated 2013).
